SMILES strings stand for the structures. Structures can show the parent of a compound that is named as a salt. Where two headings read alike, the source gives them in different places. Some results are limits rather than exact numbers.

The source of these data is US9040527B2, “Pyrimidinediamine kinase inhibitors” (Rigel Pharmaceuticals, Inc., priority 2008, dated 2015).

In this assay the target is PLK1 (Homo sapiens, UniProt P53350). Put plainly: In vitro PLK1 ELISA assay (biochemical). Also noted: purchased Cell Signalling 7728. The protocol: Inhibition of PLK1 was measured by quantifying phosphorylation of PLK1 substrates using chemiluminescent and fluorogenic probes. The protocols for these assays are provided below.
PLK1, sequence (P53350 whole entry): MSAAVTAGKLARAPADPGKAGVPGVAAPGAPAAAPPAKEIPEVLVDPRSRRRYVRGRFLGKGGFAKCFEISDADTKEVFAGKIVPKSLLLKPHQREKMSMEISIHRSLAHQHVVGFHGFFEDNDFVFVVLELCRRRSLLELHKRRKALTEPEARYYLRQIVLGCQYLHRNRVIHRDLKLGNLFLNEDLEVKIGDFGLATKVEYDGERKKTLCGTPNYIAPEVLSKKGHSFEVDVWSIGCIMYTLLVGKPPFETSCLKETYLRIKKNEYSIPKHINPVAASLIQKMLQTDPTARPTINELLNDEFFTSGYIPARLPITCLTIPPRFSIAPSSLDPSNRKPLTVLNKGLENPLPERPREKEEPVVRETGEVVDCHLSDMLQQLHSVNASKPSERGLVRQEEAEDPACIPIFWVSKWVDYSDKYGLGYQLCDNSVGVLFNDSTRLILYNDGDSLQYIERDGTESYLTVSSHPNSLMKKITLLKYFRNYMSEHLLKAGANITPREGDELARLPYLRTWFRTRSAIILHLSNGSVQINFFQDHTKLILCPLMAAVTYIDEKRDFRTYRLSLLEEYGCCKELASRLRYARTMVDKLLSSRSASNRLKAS
In Vitro PLK1 ELISA Assay
1. Preparation of Assay Plates.
Costar 96-well black or white solid flat high binding plates (Fisher Scientific, Catalog No. 07-200-591) were coated with Neutravidin (Pierce, Catalog No. 31000) using the following protocol. A 0.01 mg/mL solution of Neutravidin in 1× Phosphate Buffered Saline (“PBS”, Cellgro/Mediatech, Catalog No. 21-040-CV) was added to each well (100 μL/well) and was incubated for 18-24 hours at 4° C. The plates were then washed with 1× Phosphate Buffer Saline—Tween (“PBST”, Calbiochem, Catalog No. 524653) buffer using a plate washer. The plates were treated with bovine serum albumin (“BSA”, Sigma, Catalog No. A7906) to block non-specific binding sites, by adding a 2% BSA solution in 1×PBST buffer to each well (100 μL/well) and incubating the plates for 1 hour at room temperature. The plates were then washed with 1×PBST buffer using a plate washer.
2. PLK1-Catalyzed Phosphorylation Reaction
An aqueous buffer solution A having the following composition was prepared:
20 mM HEPES (Cellgro/Mediatech, Catalog No. 25-060Ci), pH 7.2;
5 mM MgCl2 (Sigma, Catalog No. M2393);
2 mM MnCl2.4H2O (EM Biosciences, Catalog No. MX0185-2);
1 mM Dithiothreitol (“DTT”, Fluka, Catalog No. B4184).
Next, the substrate solution B was prepared by adding 2.6 μL of 10 mM ATP (Sigma, Catalog No. A7699) and 6.4 μL of the 1 mM PLK1 substrate, CHK2-derived peptide Biotin-SSLETVSTQELYSIP (custom synthesized at Anaspec) SEQ ID: No. 1, to 4691 μL of the buffer solution A. The concentration of the ATP in solution B is 5.44 μM (1.36×); the concentration of the PLK1 substrate in solution B is 1.36 μM (1.36×).
Compound solutions C of varying concentrations for each compound were prepared by dissolving each compound in dimethylsulfoxide (DMSO, Sigma, Catalog No. D2650) to varying concentrations, followed by adding 2 μL of each solution to 38 μL of the buffer solution A, thereby forming 10× compound solutions in 5% DMSO.
A PLK1 solution D was prepared by adding 8.4 μL of 100 μg/mL PLK1 (Cell Signalling, Catalog No. 7728) to 1392 μL of the buffer solution A, thereby forming 0.6 μg/mL (6×) PLK1 solution.
The aqueous 1.36× substrate solution B was added to each well (44 μL/well) resulting in binding of the substrate to the plate via biotin/neutravidin interaction. Then 10× compound solutions C for each tested compound at each tested concentration were added to each well (6 μL/well). Next, 6×PLK1 solution D was added to each well (10 μL/well).
The final concentrations of tested compounds in each well were 10 μM, 3.3 μM, 1.1 μM, 0.36 μM, 0.12 μM, 0.04 μM, 0.014 μM, and 0.005 μM.
The obtained reaction mixtures were incubated in the wells for 45 minutes at room temperature, allowing PLK1-catalyzed phosphorylation of the substrate to proceed. The plates were then washed with 1×PBST solution using a plate washer, such that the bound phosphorylated or unphosphorylated substrate remains attached to the wells upon washing.
The washed plates were developed by treating the plates with a primary antibody that is specific for the phosphorylated substrate, followed by treatment with a secondary antibody that is specific for the primary antibody, and that is capable of catalyzing a reaction that results in a chemiluminescent readout. The chemiluminescent readout was used to quantify the substrate phosphorylation, and, consequently, to determine IC50 values for PLK1 inhibition, and was measured using a luminometer (Perkin Elmer/Wallac plate reader). The plate development protocol is described below.
A mixed antibody solution E was prepared by adding 1 μL of the primary antibody, rabbit p-CHK2(T68) (Rockland, Catalog No. 401280), and 1 μL of the secondary antibody, HRP-goat anti-rabbit IgG (Jackson Immunoresearch Catalog No. 111-035-003) to 10000 μL of 0.1% BSA in 1×PBST buffer. […]
For orientation: In an ELISA, binding on a coated surface is turned into a signal by an enzyme label.

Where [1] appears, read: ELISA, CHK2-derived peptide substrate, read-out: PLK1 IC50 (μM) biochemical assay.
Setting [2] is: read-out: IC50 in biochemical in vitro PLK1 ELISA assay (less than 10 μM).
Where [3] appears, read: read-out: IC50 in biochemical ELISA assay (less than 0.01 μM).

On to `COc1cc(Nc2ncc(F)c(Nc3ccc4c(n3)NC(=O)CO4)n2)cc(N2CCN(C)CC2)c1` [compound 3, 6-(5-fluoro-2-(3-methoxy-5-(4-methylpiperazin-1-yl)phenylamino)pyrimidin-4-ylamino)-2H-pyrido[3,2-b][1,4]oxazin-3(4H)-one], for which the IC50 under setting [1] was under 0.5 µM and the IC50 under setting [2] is under 10 µM.
In the same order, the values of `CN1CCN(c2cccc(Nc3ncc(F)c(N(CC4CCC4)c4ccc5c(n4)NCCO5)n3)c2)CC1` [compound 4, N4-(cyclobutylmethyl)-N4-(3,4-dihydro-2H-pyrido[3,2-b][1,4]oxazin-6-yl)-5-fluoro-N2-(3-(4-methylpiperazin-1-yl)phenyl)pyrimidine-2,4-diamine] are 5 to 10 µM and under 10 µM.
On to `COc1cc(Nc2ncc(F)c(Nc3ccc4c(n3)NCCO4)n2)cc(N2CCN(C)CC2)c1` [compound 5, N4-(3,4-dihydro-2H-pyrido[3,2-b][1,4]oxazin-6-yl)-5-fluoro-N2-(3-methoxy-5-(4-methylpiperazin-1-yl)phenyl)pyrimidine-2,4-diamine], for which the IC50 was under 0.5 µM under setting [1], under 0.01 µM under setting [3] and under 10 µM under setting [2].
Consider `CN1CCN(c2cccc(Nc3ncc(C(F)(F)F)c(Nc4ccc5c(n4)NC(=O)CO5)n3)c2)CC1` [compound 6, 6-(2-(3-(4-methylpiperazin-1-yl)phenylamino)-5-(trifluoro-methyl)pyrimidin-4-ylamino)-2H-pyrido[3,2-b][1,4]oxazin-3(4H)-one], for which the IC50 is, setting by setting: under setting [1], under 0.5 µM; under setting [3], under 0.01 µM; under setting [2], under 10 µM.
For `CN1CCN(c2cccc(Nc3ncc(F)c(N(CC4CCCCC4)c4ccc5c(n4)NCCO5)n3)c2)CC1` [compound 7, N4-(cyclohexylmethyl)-N4-(3,4-dihydro-2H-pyrido[3,2-b][1,4]oxazin-6-yl)-5-fluoro-N2-(3-(4-methylpiperazin-1-yl)phenyl)pyrimidine-2,4-diamine], the IC50 under setting [1] was at least 10 µM.
Turning to `CC(C)c1cc(Nc2ncc(F)c(Nc3ccc4c(n3)NC(=O)CO4)n2)ccc1N1CC2CC1CN2C` (stereo not drawn) [compound 8, 6-(5-fluoro-2-(3-isopropyl-4-(5-methyl-2,5-diazabicyclo[2.2.1]heptan-2-yl)phenylamino)pyrimidin-4-ylamino)-2H-pyrido[3,2-b][1,4]oxazin-3(4H)-one], the IC50 under setting [1] was at least 10 µM.
Take `CN1CCN(c2cccc(Nc3ncc(F)c(N(c4ccc5c(n4)NCCO5)C4CCCCC4)n3)c2)CC1` [compound 9, N4-cyclohexyl-N4-(3,4-dihydro-2H-pyrido[3,2-b][1,4]oxazin-6-yl)-5-fluoro-N2-(3-(4-methylpiperazin-1-yl)phenyl)pyrimidine-2,4-diamine]: the IC50 under setting [1] was at least 10 µM.
On the same count and under the same terms, in the case of `CC(C)c1cc(Nc2ncc(F)c(Nc3ccc4c(n3)NCCO4)n2)ccc1N1CC2CC1CN2C` (stereo not drawn) [compound 10, N4-(3,4-dihydro-2H-pyrido[3,2-b][1,4]oxazin-6-yl)-5-fluoro-N2-(3-isopropyl-4-(5-methyl-2,5-diazabicyclo[2.2.1]heptan-2-yl)phenyl)pyrimidine-2,4-diamine] it was at least 10 µM; in that of `COC(=O)c1cnc(Nc2cccc(N3CCN(C)CC3)c2)nc1Nc1ccc2c(n1)NCCO2` [compound 11, methyl 4-(3,4-dihydro-2H-pyrido[3,2-b][1,4]oxazin-6-ylamino)-2-(3-(4-methylpiperazin-1-yl)phenylamino)pyrimidine-5-carboxylate], at least 10 µM.
For the molecule `CN1CCN(c2cccc(Nc3ncc(C(=O)O)c(Nc4ccc5c(n4)NCCO5)n3)c2)CC1` [compound 12, 4-(3,4-dihydro-2H-pyrido[3,2-b][1,4]oxazin-6-ylamino)-2-(3-(4-methyl-piperazin-1-yl)phenyl-amino)pyrimidine-5-carboxylic acid], under setting [1], the IC50 is at least 10 µM.
Same read-out and setting: the same measure for `CN1CCN(c2cccc(Nc3nccc(Nc4ccc5c(n4)NC(=O)CO5)n3)c2)CC1` [compound 13, 6-(2-(3-(4-methylpiperazin-1-yl)phenylamino)pyrimidin-4-ylamino)-2H-pyrido[3,2-b][1,4]oxazin-3(4H)-one]: at least 10 µM.
In the case of `CN1CCN(c2cc(Nc3ncc(F)c(Nc4ccc5c(n4)NC(=O)CO5)n3)cc(OCC3CCC3)c2)CC1` [compound 14, 6-(2-(3-(cyclobutylmethoxy)-5-(4-methylpiperazin-1-yl)phenylamino)-5-fluoropyrimidin-4-ylamino)-2H-pyrido[3,2-b][1,4]oxazin-3(4H)-one], the IC50 under setting [1] is at least 10 µM.
For `CN1CCN(c2cccc(Nc3ncc(F)c(N(c4ccc5c(n4)NCCO5)C4CCC4)n3)c2)CC1` [compound 15, N4-cyclobutyl-N4-(3,4-dihydro-2H-pyrido[3,2-b][1,4]oxazin-6-yl)-5-fluoro-N2-(3-(4-methylpiperazin-1-yl)phenyl)pyrimidine-2,4-diamine], the IC50 under setting [1] fell in the range of 0.5 to 5 µM and the half-inhibitory concentration (IC50) under setting [2] is under 10 µM.
On the same counts, the results for `CN1CCN(c2cc(Nc3ncc(F)c(Nc4ccc5c(n4)NCCO5)n3)cc(OCC3CCC3)c2)CC1` [compound 16, N2-(3-(cyclobutylmethoxy)-5-(4-methylpiperazin-1-yl)phenyl)-N4-(3,4-dihydro-2H-pyrido[3,2-b][1,4]oxazin-6-yl)-5-fluoropyrimidine-2,4-diamine] are under 0.5 µM and under 10 µM.
With `CN1CCN(c2cccc(Nc3ncc(F)c(Nc4ccc5c(n4)NC(=O)CO5)n3)c2)CC1` [compound 19, 6-(5-fluoro-2-(3-(4-methylpiperazin-1-yl)phenylamino)pyrimidin-4-ylamino)-2H-pyrido[3,2-b][1,4]oxazin-3(4H)-one hydrochloride], under setting [3], the 50% inhibitory concentration (IC50) is under 0.01 µM.
For the molecule `CN1CC2CC1CN2c1ccc(Nc2ncc(F)c(Nc3ccc4c(n3)NCCO4)n2)cc1C(F)(F)F` (stereo not drawn) [compound 57, N4-(3,4-dihydro-2H-pyrido[3,2-b][1,4]oxazin-6-yl)-5-fluoro-N2-(4-(5-methyl-2,5-diazabicyclo[2.2.1]heptan-2-yl)-3-(trifluoro-methyl)phenyl)pyrimidine-2,4-diamine], under setting [1], the IC50 is at least 10 µM.
On to `Cc1cc(Nc2ncc(F)c(Nc3ccc4c(n3)N(CC3CC3)C(=O)CO4)n2)ccc1N1CCN(C)CC1` [compound 111, 4-(cyclopropylmethyl)-6-(5-fluoro-2-(3-methyl-4-(4-methylpiperazin-1-yl)phenylamino)pyrimidin-4-ylamino)-2H-pyrido[3,2-b][1,4]oxazin-3(4H)-one], for which the IC50 runs as follows: under setting [1], 0.5 to 5 µM; under setting [2], under 10 µM.
`CN1CCN(c2cccc(Nc3ncc(F)c(Nc4ccc5c(n4)NCCO5)n3)c2)CC1` [compound 168, N4-(3,4-dihydro-2H-pyrido[3,2-b][1,4]oxazin-6-yl)-5-fluoro-N2-(3-(4-methylpiperazin-1-yl)phenyl)pyrimidine-2,4-diamine p-toluene sulfonic acid salt]: under setting [3], the IC50 is under 0.01 µM.

As usually defined, the IC50 is the concentration needed to halve the response being measured.
